Measurements: patent US9051310B2, “Nicotinamide derivative or salt thereof” (FUJIFILM Corporation, priority 2011, dated 2015)

Each compound was assayed against T1, glutathione S-transferase (GST)-linked full-length human Syk protein (Homo sapiens, UniProt P43405) (assay: Syk enzyme assay). Conditions: 0.83 nM Syk, time-resolved fluorescence; read-out: IC50 of Syk-inhibitory activity.
T1 construct: glutathione S-transferase (GST)-linked full-length human Syk protein; purchased Carna Biosciences; host or cells: Baculovirus expression system
Assay type: biochemical
Description: A glutathione S-transferase (GST)-linked full-length human Syk protein (Carna Biosciences), which had been generated using a Baculovirus expression system, was used in the Syk enzyme assay.
7.5 μl of a reaction solution (0.83 nM Syk, 20 mM HEPES, 10 mM MgCl2, 50 mM NaCl, 2 mM DTT, 0.05% BSA, pH 7.0) containing a Syk protein and a predetermined concentration of a test compound was shaken for 2 minutes, and it was then left at rest at room temperature for 13 minutes. Thereafter, 0.5 μM substrate peptide (Biotin-[…]-NH2) and 5 μL of a solution containing 67.5 μM ATP were added to the reaction solution, and the obtained mixture was then shaken for 2 minutes. The reaction solution was further left at rest at room temperature for 40 minutes, so as to carry out an enzyme reaction.
Thereafter, 50 μL of a reaction termination solution [60 nM APC-SA, 0.45 μg/mL Eu-PT66, 30 mM HEPES (pH 7.0), 150 mM KF, 30 mM EDTA, 0.15% BSA, 0.075% Tween20] containing Allophycocyanin-Streptavidin (APC-SA; PerkinElmer) and an Eu-W1024-labeled anti-phosphotyrosine PT66 antibody (Eu-PT66; PerkinElmer) was added to the reaction solution to terminate the enzyme reaction. At the same time, the reaction solution was left at rest at room temperature for 1 hour, so as to carry out an antigen-antibody reaction. Thereafter, using EnVision (PerkinElmer), the level of time-resolved fluorescence was measured at 615 nm and 665 nm, so that the phosphorylation of the substrate peptide was measured.
The following are used in Table 5 to denote standards for evaluating IC50 of Syk-inhibitory activity. • A: Up to 10 nM • B: 10 to 50 nM • C: 50 to 100 nM

Row | IC50 [nM] | Compound
1 | 50 to 100 | CC(C)[C@@H](Nc1nc(Nc2ccc3cnn(C)c3c2)c(C(N)=O)cc1F)[C@H](C)N [Example 2-102, 6-(((2S,3R)-2-amino-4-methylpentan-3-yl)amino)-5-fluoro-2-((1-methyl-1H-indazol-6-yl)amino)nicotinamide]
2 | 50 to 100 | CCn1ncc2ccc(Nc3nc(N[C@H](C(C)C)[C@H](C)N)c(F)cc3C(N)=O)cc21 [Example 2-103, 6-(((2S,3R)-2-amino-4-methylpentan-3-yl)amino)-2-((1-ethyl-1H-indazol-6-yl)amino)-5-fluoronicotinamide]
3 | 50 to 100 | CC(C)[C@@H](Nc1nc(Nc2ccc3c(cnn3C)c2)c(C(N)=O)cc1F)[C@H](C)N [Example 2-104, 6-(((2S,3R)-2-amino-4-methylpentan-3-yl)amino)-5-fluoro-2-((1-methyl-1H-indazol-5-yl)amino)nicotinamide]
4 | 10 to 50 | CCn1ncc2cc(Nc3nc(N[C@H](C(C)C)[C@H](C)N)c(F)cc3C(N)=O)ccc21 [Example 2-105, 6-(((2S,3R)-2-amino-4-methylpentan-3-yl)amino)-2-((1-ethyl-1H-indazol-5-yl)amino)-5-fluoronicotinamide]
5 | 50 to 100 | COc1cc(Nc2nc(N[C@H](C(C)C)[C@H](C)N)c(F)cc2C(N)=O)ccn1 [Example 2-107, 6-(((2S,3R)-2-amino-4-methylpentan-3-yl)amino)-5-fluoro-2-((2-methoxypyridin-4-yl)amino)nicotinamide]
6 | 10 to 50 | COc1ncc(Nc2nc(N[C@H](CC(C)C)[C@H](C)N)c(F)cc2C(N)=O)cc1-n1nccn1 [Example 2-112, 6-(((2S,3R)-2-amino-5-methylhexan-3-yl)amino)-5-fluoro-2-((6-methoxy-5-(2H-1,2,3-triazol-2-yl)pyridin-3-yl)amino)nicotinamide]
7 | 50 to 100 | CC[C@@H](Nc1nc(Nc2cnc(OCCOC)c(F)c2)c(C(N)=O)cc1F)[C@H](C)N [Example 2-117, 6-(((2S,3R)-2-aminopentan-3-yl)amino)-5-fluoro-2-((5-fluoro-6-(2-methoxyethoxy)pyridin-3-yl)amino)nicotinamide]
8 | 50 to 100 | CCC[C@@H](Nc1nc(Nc2cnc(OCCOC)c(F)c2)c(C(N)=O)cc1F)[C@H](C)N [Example 2-118, 6-(((2S,3R)-2-aminohexan-3-yl)amino)-5-fluoro-2-((5-fluoro-6-(2-methoxyethoxy)pyridin-3-yl)amino)nicotinamide]
9 | 10 to 50 | COCCOc1ncc(Nc2nc(N[C@H](CC(C)C)[C@H](C)N)c(F)cc2C(N)=O)cc1F [Example 2-119, 6-(((2S,3R)-2-amino-5-methylhexan-3-yl)amino)-5-fluoro-2-((5-fluoro-6-(2-methoxyethoxy)pyridin-3-yl)amino)nicotinamide]
10 | 10 to 50 | COCCOc1ncc(Nc2nc(N[C@H](CC(C)C)[C@H](C)N)c(F)cc2C(N)=O)cc1-n1nccn1 [Example 2-140, 6-(((2S,3R)-2-amino-5-methylhexan-3-yl)amino)-5-fluoro-2-((6-(2-methoxyethoxy)-5-(2H-1,2,3-triazol-2-yl)pyridin-3-yl)amino)nicotinamide]
11 | < 10 | COc1nn(C)c2c(F)cc(Nc3nc(N[C@H](CC(C)C)[C@H](C)N)c(F)cc3C(N)=O)cc12 [Example 2-156, 6-(((2S,3R)-2-amino-5-methylhexan-3-yl)amino)-5-fluoro-2-((7-fluoro-3-methoxy-1-methyl-1H-indazol-5-yl)amino)nicotinamide]
12 | 10 to 50 | COCCOc1ncc(Nc2nc(N[C@H](C3CC3)[C@H](C)N)c(F)cc2C(N)=O)cc1-n1nccn1 [Example 2-161, 6-(((1R,2S)-2-amino-1-cyclopropylpropyl)amino)-5-fluoro-2-((6-(2-methoxyethoxy)-5-(2H-1,2,3-triazol-2-yl)pyridin-3-yl)amino)nicotinamide]
13 | 10 to 50 | CCOc1ncc(Nc2nc(N[C@H](C3CC3)[C@H](C)N)c(F)cc2C(N)=O)cc1-n1cccn1 [Example 2-164]
14 | 10 to 50 | COCCOc1ncc(Nc2nc(N[C@H](C3CCC3)[C@H](C)N)c(F)cc2C(N)=O)cc1-n1nccn1 [Example 2-165, 6-(((1R,2S)-2-amino-1-cyclobutylpropyl)amino)-5-fluoro-2-((6-(2-methoxyethoxy)-5-(2H-1,2,3-triazol-2-yl)pyridin-3-yl)amino)nicotinamide]
15 | 10 to 50 | CCOc1ncc(Nc2nc(N[C@H](C3CCC3)[C@H](C)N)c(F)cc2C(N)=O)cc1-n1ccnn1 [Example 2-167, 6-(((1R,2S)-2-amino-1-cyclobutylpropyl)amino)-2-((6-ethoxy-5-(1H-1,2,3-triazol-1-yl)pyridin-3-yl)amino)-5-fluoronicotinamide]

The next lines start with the compound.

Row | Compound | IC50 [nM]
16 | CCn1ncc2c(Nc3nc(N[C@H](C(C)C)[C@H](C)N)c(F)cc3C(N)=O)cccc21 [Example 2-97, 6-(((2S,3R)-2-amino-4-methylpentan-3-yl)amino)-2-((1-ethyl-1H-indazol-4-yl)amino)-5-fluoronicotinamide] | 50 to 100
17 | CCCC[C@@H](Nc1nc(Nc2cccc3c2cnn3CC)c(C(N)=O)cc1F)[C@H](C)N [Example 2-99, 6-(((2S,3R)-2-aminoheptan-3-yl)amino)-2-((1-ethyl-1H-indazol-4-yl)amino)-5-fluoronicotinamide] | < 10
18 | COc1cc(Nc2nc(N[C@H](C(C)C)[C@H](C)N)c(F)cc2C(N)=O)cc(OC)n1 [Example 2-108, 6-(((2S,3R)-2-amino-4-methylpentan-3-yl)amino)-2-((2,6-dimethoxypyridin-4-yl)amino)-5-fluoronicotinamide] | 50 to 100
19 | CC(C)[C@@H](Nc1nc(Nc2cncc(C3CC3)c2)c(C(N)=O)cc1F)[C@H](C)N [Example 2-111, 6-(((2S,3R)-2-amino-4-methylpentan-3-yl)amino)-2-((5-cyclopropylpyridin-3-yl)amino)-5-fluoronicotinamide] | 10 to 50
20 | COCCOc1ncc(Nc2nc(N[C@H](C3CC3)[C@H](C)N)c(F)cc2C(N)=O)cc1F [Example 2-115, 6-(((1R,2S)-2-amino-1-cyclopropylpropyl)amino)-5-fluoro-2-((5-fluoro-6-(2-methoxyethoxy)pyridin-3-yl)amino)nicotinamide] | 10 to 50
21 | COC[C@@H](Nc1nc(Nc2ccc3c(c2)c(N(C)C)nn3C)c(C(N)=O)cc1F)[C@H](C)N [Example 2-120, 6-(((2S,3S)-3-amino-1-methoxybutan-2-yl)amino)-2-((3-(dimethylamino)-1-methyl-1H-indazol-5-yl)amino)-5-fluoronicotinamide] | < 10
22 | COc1nn(C)c2c(F)cc(Nc3nc(N[C@H](C4CC4)[C@H](C)N)c(F)cc3C(N)=O)cc12 [Example 2-154, 6-(((1R,2S)-2-amino-1-cyclopropylpropyl)amino)-5-fluoro-2-((7-fluoro-3-methoxy-1-methyl-1H-indazol-5-yl)amino)nicotinamide] | < 10
23 | CCCC[C@@H](Nc1nc(Nc2cc(F)c3c(c2)c(OC)nn3C)c(C(N)=O)cc1F)[C@H](C)N [Example 2-155, 6-(((2S,3R)-2-aminoheptan-3-yl)amino)-5-fluoro-2-((7-fluoro-3-methoxy-1-methyl-1H-indazol-5-yl)amino)nicotinamide] | < 10
24 | COc1nn(C)c2c(F)cc(Nc3nc(N[C@H](CC4CC4)[C@H](C)N)c(F)cc3C(N)=O)cc12 [Example 2-157, 6-(((2R,3S)-3-amino-1-cyclopropylbutan-2-yl)amino)-5-fluoro-2-((7-fluoro-3-methoxy-1-methyl-1H-indazol-5-yl)amino)nicotinamide] | < 10
25 | CC[C@H](N)[C@@H](CC)Nc1nc(Nc2cc(F)c3c(c2)c(OC)nn3C)c(C(N)=O)cc1F [Example 2-160, 6-(((3R,4S)-4-aminohexan-3-yl)amino)-5-fluoro-2-((7-fluoro-3-methoxy-1-methyl-1H-indazol-5-yl)amino)nicotinamide] | < 10
26 | CCOc1ncc(Nc2nc(N[C@H](C3CCC3)[C@H](C)N)c(F)cc2C(N)=O)cc1-n1cccn1 [Example 2-168, 6-(((1R,2S)-2-amino-1-cyclobutylpropyl)amino)-2-((6-ethoxy-5-(1H-pyrazol-1-yl)pyridin-3-yl)amino)-5-fluoronicotinamide] | 10 to 50
27 | C[C@H](N)[C@H](Nc1nc(Nc2ccc3c(c2)c(OC(F)F)nn3C)c(C(N)=O)cc1F)C1CC1 [Example 2-171, 6-(((1R,2S)-2-amino-1-cyclopropylpropyl)amino)-2-((3-(difluoromethoxy)-1-methyl-1H-indazol-5-yl)amino)-5-fluoronicotinamide] | < 10
28 | CC[C@@H](Nc1nc(Nc2ccc3c(c2)c(OC(F)F)nn3CCOC)c(C(N)=O)cc1F)[C@H](C)N [Example 2-175, 6-(((2S,3R)-2-aminopentan-3-yl)amino)-2-((3-(difluoromethoxy)-1-(2-methoxyethyl)-1H-indazol-5-yl)amino)-5-fluoronicotinamide] | < 10
